The assay addresses TRPA1 (Homo sapiens, UniProt O75762). Briefly: Determination of TRPA1 activity in vitro (TRPA1 antagonism in vitro), procedure of Wei et al., Anesthesiology 111 (2009) 147-154. Format: cell-based. The source says:
EXPERIMENT 1: Determination of TRPA1 activity in vitro
The illustrative examples of the present invention were screened for TRPA1 activity according to a procedure described in Wei et al., Anesthesiology 111 (2009) 147-154. Table 1. TRPA1 antagonism in vitro.

TRPA1, sequence (O75762 whole entry): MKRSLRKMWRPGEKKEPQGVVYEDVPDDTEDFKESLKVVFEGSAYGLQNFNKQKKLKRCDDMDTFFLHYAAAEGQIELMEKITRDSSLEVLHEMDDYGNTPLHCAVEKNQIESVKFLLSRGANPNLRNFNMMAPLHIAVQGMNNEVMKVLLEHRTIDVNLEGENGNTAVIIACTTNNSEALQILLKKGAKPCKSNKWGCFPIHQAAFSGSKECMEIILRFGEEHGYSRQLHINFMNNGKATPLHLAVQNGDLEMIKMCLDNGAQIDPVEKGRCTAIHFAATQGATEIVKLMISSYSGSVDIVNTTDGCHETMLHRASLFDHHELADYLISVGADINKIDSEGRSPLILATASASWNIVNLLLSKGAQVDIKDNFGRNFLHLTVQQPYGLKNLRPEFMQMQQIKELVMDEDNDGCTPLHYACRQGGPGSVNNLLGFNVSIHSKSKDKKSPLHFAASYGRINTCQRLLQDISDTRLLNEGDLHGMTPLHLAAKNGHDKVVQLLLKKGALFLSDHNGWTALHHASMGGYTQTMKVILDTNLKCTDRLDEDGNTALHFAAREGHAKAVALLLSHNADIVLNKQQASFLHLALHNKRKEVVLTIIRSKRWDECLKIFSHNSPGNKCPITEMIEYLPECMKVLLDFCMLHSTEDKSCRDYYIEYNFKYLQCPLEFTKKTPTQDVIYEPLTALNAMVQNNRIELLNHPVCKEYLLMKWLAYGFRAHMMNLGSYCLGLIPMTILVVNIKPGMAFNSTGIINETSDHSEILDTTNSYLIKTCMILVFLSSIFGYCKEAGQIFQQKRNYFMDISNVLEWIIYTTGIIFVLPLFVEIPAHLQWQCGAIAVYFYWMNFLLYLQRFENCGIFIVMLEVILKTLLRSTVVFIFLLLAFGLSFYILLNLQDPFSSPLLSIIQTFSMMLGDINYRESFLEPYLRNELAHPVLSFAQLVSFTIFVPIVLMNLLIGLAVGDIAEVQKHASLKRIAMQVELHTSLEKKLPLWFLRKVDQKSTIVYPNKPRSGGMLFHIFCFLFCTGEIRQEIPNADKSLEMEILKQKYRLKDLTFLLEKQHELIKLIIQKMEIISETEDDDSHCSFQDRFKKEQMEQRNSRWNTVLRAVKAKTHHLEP

As for `O=C(NCc1cccc(C2CC2)c1)[C@@H]1CCCN1S(=O)(=O)c1ccc(F)cc1` [Example 23, (S)-N-(3-cyclopropylbenzyl)-1-(4-fluorophenylsulfonyl)pyrrolidine-2-carboxamide], half-maximal inhibition (IC50) was put at 7.7 µM.
Turning to `O=C(NCc1ccc(Cl)cc1)[C@@H]1CCCN1S(=O)(=O)c1ccc(F)cc1` [Example 20, (S)-N-(4-chlorobenzyl)-1-(4-fluorophenylsulfonyl)pyrrolidine-2-carboxamide], inhibition was half-maximal at 12.5 µM (IC50).
The result for `CCCc1cc(CNC(=O)[C@@H]2CCCN2S(=O)(=O)c2ccccc2)ccc1C#N` [Example 11, (S)-N-(4-cyano-3-propylbenzyl)-1-(phenylsulfonyl)pyrrolidine-2-carboxamide] reads 4.4 µM; that for `CCCC(=O)c1cccc(CNC(=O)[C@@H]2CCCN2S(=O)(=O)c2ccc(F)cc2)c1` [Example 3, (S)-N-(3-butyrylbenzyl)-1-(4-fluorophenylsulfonyl)pyrrolidine-2-carboxamide], 10.4 µM.

The record behind these values is patent EP2520566A1, “New Pharmaceutical Compounds” (Orion Corporation, priority 2011, dated 2012).
